Results taken from ChEMBL document CHEMBL1914332, “Marine diterpene glycosides” (Bioorg Med Chem, 2011).

tested on: MCF7; assay: Antimitotic activity in human MCF7 cells assessed as mitotic arrest after 16 to 20 hrs by ELISA method; assay type: functional, cell-based

SMILES	IC50
CCO[C@]12C=C[C@](C)(O1)[C@@H](OC(=O)/C=C/c1cn(C)cn1)C[C@H]1C(CO)=CC[C@H](C(C)C)[C@H]1/C=C\2CO[C@@H]1OC[C@@H](O)[C@@H](O)[C@@H]1OC(C)=O	20 nM
CO[C@]12C=C[C@](C)(O1)[C@@H](OC(=O)/C=C/c1cn(C)cn1)C[C@@H]1[C@H](/C=C\2CO[C@@H]2OC[C@@H](O)[C@@H](O)[C@@H]2OC(C)=O)[C@@H](C(C)C)C[C@H]2O[C@@]12C	300 nM
CO[C@]12CC[C@](C)(O1)[C@@H](OC(=O)CCc1cn(C)cn1)C[C@@H]1[C@H](/C=C\2CO[C@@H]2OC[C@@H](O)[C@@H](O)[C@@H]2OC(C)=O)[C@@H](C(C)C)CC[C@@H]1C	> 10000 nM
CO[C@]12C=C[C@](C)(O1)[C@@H](OC(=O)CCc1cn(C)cn1)C[C@H]1C(C)=CC[C@H](C(C)C)[C@H]1/C=C\2CO[C@@H]1OC[C@@H](O)[C@@H](O)[C@@H]1OC(C)=O	20000 nM
CO[C@]12C=C[C@](C)(O1)[C@@H](OC(=O)/C=C/c1cn(C)cn1)C[C@@H]1[C@H](/C=C\2CO[C@@H]2OC[C@@H](O)[C@@H](O)[C@@H]2OC(C)=O)[C@@H](C(C)C)C=C[C@@]1(C)O [CARIBAEOSIDE]	20000 nM
CC(=O)O[C@@H]1[C@H](OC/C2=C/[C@@H]3[C@@H](C(C)C)CC=C(C)[C@@H]3C[C@H](OC(=O)/C=C/c3cn(C)cn3)[C@]3(C)C=C[C@@]2(O)O3)OC[C@@H](O)[C@H]1O [DESMETHYLELEUTHEROBIN]	20 nM
CO[C@]12C=C[C@](C)(O1)[C@@H](OC(=O)/C=C/c1cn(C)cn1)C[C@H]1C(C)=CC[C@H](C(C)C)[C@H]1/C=C\2CO[C@@H]1OC[C@@H](O)[C@@H](O)[C@@H]1OC(C)=O [ELEUTHEROBIN]	100 nM
CO[C@]12C=C[C@](C)(O1)[C@@H](OC(=O)/C=C/c1cn(C)cn1)C[C@H]1C(C)=CC[C@H](C(C)C)[C@H]1/C=C\2CO[C@@H]1OC[C@@H](O)[C@@H](OC(C)=O)[C@@H]1O [ISOELEUTHEROBIN A]	50 nM

The next lines start with the values.

IC50	SMILES
20 nM	CC(=O)O[C@@H]1[C@H](OC/C2=C/[C@@H]3[C@@H](C(C)C)CC=C(C)[C@@H]3C[C@H](OC(=O)/C=C/c3cn(C)cn3)[C@]3(C)C=C[C@@]2(OCCO)O3)OC[C@@H](O)[C@H]1O
80 nM	CC(=O)O[C@@H]1[C@H](OC/C2=C/[C@@H]3[C@@H](C(C)C)CC=C(C)[C@@H]3C[C@H](OC(=O)/C=C/c3cn(C)cn3)[C@]3(C)C=C[C@@]2(OCC(C)(C)CO)O3)OC[C@@H](O)[C@H]1O
30 nM	CO[C@]12C=C[C@](C)(O1)[C@@H](OC(=O)/C=C/c1cn(C)cn1)C[C@@H]1[C@H](/C=C\2CO[C@@H]2OC[C@@H](O)[C@@H](O)[C@@H]2OC(C)=O)[C@@H](C(C)C)C[C@@H]2O[C@@]21C
200 nM	CO[C@]12CC[C@](C)(O1)[C@@H](OC(=O)/C=C/c1cn(C)cn1)C[C@@H]1[C@H](/C=C\2CO[C@@H]2OC[C@@H](O)[C@@H](O)[C@@H]2OC(C)=O)[C@@H](C(C)C)CC[C@@H]1C [TETRAHYDROELEUTHEROBIN]
